# What was measured:
# Tobacco Calli cells = assay: LD 50 hygromycin B concentration for sensitive cells; type: cell-based
# [1] = test system: Tobacco Calli cells transformed with the Hygromycin B phosphotransferase gene; assay: LD 50 for resistant cells; details: for LD 50 for different impurities for resistant cells: isolated impurities added to media
# [2] = test system: 293 cells transformed with the Hygromycin B phosphotransferase gene; assay: LD 50 for resistant cells; details: resistant 293 cells; for LD 50 for different impurities for resistant cells: isolated impurities added to media
# 293 cell = assay: LD 50 hygromycin B concentration for sensitive cells; type: cell-based; details: sensitive 293 cell
# resistant cells = details: comparison between batches / impurities
# Fungi cell = assay: LD 50 hygromycin B concentration for sensitive cells; type: cell-based
# Escherichia Coli = assay: as above; type: cell-based
Compound,LD 50 hygromycin B concentration for sensitive cells (Tobacco Calli cells),LD 50 hygromycin B concentration for resistant cells ([1]; hygromycin B batches),LD 50 hygromycin B concentration for resistant cells ([2]; hygromycin B batches),LD 50 hygromycin B concentration for sensitive cells (293 cell),toxicity to resistant cells (in words) (resistant cells),LD 50 hygromycin B concentration for sensitive cells (Fungi cell),LD 50 hygromycin B concentration for sensitive cells (Escherichia Coli),LD 50 for different impurities for resistant cells [1],LD 50 for different impurities for resistant cells [2]
"CN[C@H]1C[C@@H](N)[C@H](O)[C@@H](O[C@@H]2O[C@H](CO)[C@H](O)[C@@H]3OC4(O[C@H]23)O[C@H]([C@@H](N)CO)[C@H](O)[C@H](O)[C@H]4O)[C@@H]1O (some centres unmarked) [Batch T-94, hygromycin B]",4.7 µg/mL,490 µg/mL,394 µg/mL,8.5 µg/mL,lower toxicity to resistant cells,14.2 µg/mL,8.2 µg/mL,–,–
Destomic acid [Impurity A],–,–,–,–,–,–,–,193 µg/mL,240 µg/mL
NC1CC(N)C(O)C(OCC(O)C(O)C(O)C(O)CO)C1O (centres unmarked) [Impurity D],–,–,–,–,–,–,–,0.5 µg/mL,1.7 µg/mL

# — patent US20120231448A1, “LOW CELL TOXICITY […]” (priority 2011, published 2012)
